US10751293B2, “Polymer fiber scaffolds and uses thereof” (CASE WESTERN RESERVE UNIVERSITY, priority 2015, dated 2020)

Test: thermogravimetric analysis (TGA), thermal stability

stability at the processing temperature (180° C.): stable
temperature above which decomposition begins (non-isothermal mode): above 190 °C
Structure (SMILES): Clc1ccccc1C(c1ccccc1)(c1ccccc1)n1ccnc1 [Clotrimazole]
